The values below come from PubChem BioAssay (NCI).

Some test systems named below: HL-60(TB) leukemia; ACHN renal; RPMI-8226 leukemia; HOP-62 NSCLC; NCI-H23 lung; UACC-257 melanoma; SK-MEL-5 melanoma; NCI-H522 lung; SF-539 CNS.
Assay in all cases: NCI anticancer screen, dose series, 48 h

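Five compound concentrations were applied to cells in 96-well plates for 48 hours; endpoints were derived by simple linear interpolation of the resulting dose-response curve. The concentration for 50% growth inhibition is given as GI50. TGI: concentration producing complete growth inhibition.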

For the compound `COc1ccc(Cc2c3cc(OC)c(OC)cc3cc[n+]2C)cc1`, the TGI in the experiment with HL-60(TB) leukemia was greater than 100 µM; in the experiment on ACHN renal it was greater than 49.9 µM; in the experiment on RPMI-8226 leukemia, greater than 100 µM; with HOP-62 NSCLC it was greater than 48.7 µM; with NCI-H23 lung, greater than 40.2 µM; in the experiment on UACC-257 melanoma it was greater than 58.4 µM. Moreover, the values for the TGI in the experiment on SK-MEL-5 melanoma, in the experiment on NCI-H522 lung and in the experiment with SF-539 CNS were greater than 62.2 µM, greater than 85.9 µM and greater than 53.1 µM, respectively.

Take `C#CC[C@]12CC(=O)CC[C@H]1CC1(C2)OCCO1`: the TGI with HL-60(TB) leukemia, with ACHN renal, in the experiment with RPMI-8226 leukemia, with HOP-62 NSCLC, in the experiment with UACC-257 melanoma and in the experiment on SK-MEL-5 melanoma was greater than 100 µM in each case. The TGI in the experiment with NCI-H522 lung and with SF-539 CNS was greater than 100 µM throughout.

Take `Cc1cc2c(=O)cc(-c3ccncc3)oc2c(C(N)=O)c1C`: the TGI in the experiment with HL-60(TB) leukemia, in the experiment on ACHN renal, with RPMI-8226 leukemia, in the experiment with HOP-62 NSCLC, in the experiment with NCI-H23 lung and in the experiment on UACC-257 melanoma was greater than 100 µM throughout. Moreover, the TGI in the experiment on SF-539 CNS was greater than 100 µM.

With `C[C@H](O)CCC(=O)c1ccoc1`, the TGI in the experiment on HL-60(TB) leukemia, in the experiment with ACHN renal, with RPMI-8226 leukemia, in the experiment on HOP-62 NSCLC, in the experiment with NCI-H23 lung and with UACC-257 melanoma was greater than 100 µM in each case. Also, the TGI in the experiment with SK-MEL-5 melanoma, with NCI-H522 lung and in the experiment with SF-539 CNS was greater than 100 µM in each case.

On to `C/C(=N\NC(N)=S)c1ccc(Oc2ccccc2)cc1`, for which the TGI worked out at 23 µM in the experiment on HL-60(TB) leukemia; 42.7 µM with ACHN renal; 10.9 µM in the experiment with RPMI-8226 leukemia; 46.6 µM with HOP-62 NSCLC; 83.3 µM with NCI-H23 lung; 18.8 µM in the experiment with SK-MEL-5 melanoma. For the same compound, in the experiment with SF-539 CNS, the TGI turned out to be 17.6 µM.

As to `C/C=C/C(C/C=C(\C)CO[Si](C)(C)C(C)(C)C)O[Si](C)(C)C(C)(C)C` (stereo unspecified), the TGI in the experiment on HL-60(TB) leukemia, with ACHN renal, with RPMI-8226 leukemia, in the experiment on HOP-62 NSCLC, with NCI-H23 lung and with UACC-257 melanoma was greater than 100 µM throughout. Besides, the TGI with SK-MEL-5 melanoma, in the experiment with NCI-H522 lung and in the experiment on SF-539 CNS was greater than 100 µM throughout.

Take `Cc1c(Cl)ccc2[s+]snc12`: the TGI with HL-60(TB) leukemia was 43.7 µM; in the experiment with ACHN renal it was greater than 100 µM; in the experiment on HOP-62 NSCLC, greater than 100 µM; with NCI-H23 lung, greater than 100 µM; in the experiment on UACC-257 melanoma it was 89.7 µM; in the experiment with SK-MEL-5 melanoma it was 52.1 µM. In addition, the results for the TGI with NCI-H522 lung and in the experiment with SF-539 CNS were 41.5 µM and 44.6 µM, respectively.

As to `CC(=O)[O-].O=C([CH-]C(=O)c1ccccc1)c1ccccc1.O=C([CH-]C(=O)c1ccccc1)c1ccccc1.[Dy+3]`, the GI50 was 2.84 µM in the experiment with HL-60(TB) leukemia; 14.3 µM in the experiment on ACHN renal; 7.87 µM in the experiment with RPMI-8226 leukemia; 6.91 µM in the experiment on HOP-62 NSCLC; 9.36 µM with NCI-H23 lung; 15.6 µM in the experiment on UACC-257 melanoma. In addition, the GI50 in the experiment with SK-MEL-5 melanoma is 6.5 µM; with NCI-H522 lung, 10.4 µM; with SF-539 CNS it was 18.9 µM. Moreover, the TGI was 11.5 µM in the experiment with HL-60(TB) leukemia; greater than 100 µM in the experiment on ACHN renal; 34.7 µM in the experiment with RPMI-8226 leukemia; 31.9 µM with HOP-62 NSCLC; 37 µM in the experiment on NCI-H23 lung; 40.4 µM with UACC-257 melanoma. Further, the figures for the TGI in the experiment on SK-MEL-5 melanoma, in the experiment with NCI-H522 lung and in the experiment with SF-539 CNS were 20.9 µM, 36.9 µM and 56.1 µM, respectively.

As to `O=C(c1ccco1)c1c(C(F)(F)F)n([O-])c2cc(Cl)c(Cl)cc2[n+]1=O`, the GI50 with HL-60(TB) leukemia was 0.0812 µM; with ACHN renal, 0.443 µM; in the experiment on RPMI-8226 leukemia, 0.196 µM; in the experiment on HOP-62 NSCLC, 0.316 µM; in the experiment with NCI-H23 lung it was 0.545 µM; with UACC-257 melanoma, 0.761 µM. Also, the values for the GI50 in the experiment on SK-MEL-5 melanoma, with NCI-H522 lung and in the experiment with SF-539 CNS were 0.727 µM, 0.202 µM and 0.768 µM, respectively. In addition, the TGI in the experiment with HL-60(TB) leukemia is 0.18 µM; in the experiment with ACHN renal, 1.11 µM; with RPMI-8226 leukemia, 3.29 µM; in the experiment with HOP-62 NSCLC, 1 µM; with NCI-H23 lung, 1.36 µM; in the experiment with UACC-257 melanoma it was 2.15 µM. The TGI in the experiment with SK-MEL-5 melanoma was 1.45 µM; with NCI-H522 lung, 1.33 µM; in the experiment with SF-539 CNS it was 1.53 µM.

Take `CC[C@H]1CNC(=O)CC1CC(=O)OC` (stereo partly specified): the TGI in the experiment on ACHN renal, in the experiment with HOP-62 NSCLC, in the experiment on NCI-H23 lung, in the experiment with UACC-257 melanoma, with SK-MEL-5 melanoma and with NCI-H522 lung was greater than 100 µM in each case. The compound further showed a TGI with SF-539 CNS greater than 100 µM.

Turning to `COc1cc(Br)c(C2OCCCO2)cc1OCc1ccccc1`, the TGI with HL-60(TB) leukemia, with ACHN renal, in the experiment with RPMI-8226 leukemia, in the experiment with HOP-62 NSCLC, with NCI-H23 lung and with SK-MEL-5 melanoma was greater than 100 µM in each case. Besides, the TGI in the experiment with NCI-H522 lung and in the experiment on SF-539 CNS was greater than 100 µM throughout.

Consider `CC1(C)OC2OC(/C=C/[N+](=O)[O-])C3OC(C)(C)OC3C2O1` (stereo unspecified), for which the TGI is 10.8 µM in the experiment on HL-60(TB) leukemia; 28.8 µM in the experiment on ACHN renal; 38.3 µM in the experiment with HOP-62 NSCLC; 37.6 µM in the experiment with NCI-H23 lung; 20.7 µM in the experiment with UACC-257 melanoma; 31.7 µM in the experiment on SK-MEL-5 melanoma. Moreover, the TGI was found to be 3.36 µM in the experiment on NCI-H522 lung and 28.3 µM in the experiment on SF-539 CNS.

Regarding `O=C1N(c2ccccc2)C2(O)C(=O)c3ccccc3C2(O)N1c1ccccc1` (stereo unspecified), the TGI with ACHN renal, with RPMI-8226 leukemia, in the experiment on HOP-62 NSCLC, in the experiment with NCI-H23 lung, with UACC-257 melanoma and with SK-MEL-5 melanoma was greater than 100 µM each time. Moreover, the TGI in the experiment with NCI-H522 lung and with SF-539 CNS was greater than 100 µM throughout.

For the compound `N#CC1(C2CC(=O)N(c3ccccc3)C2=O)CCCCC1=O` (stereo unspecified), the TGI with HL-60(TB) leukemia, with ACHN renal, in the experiment on RPMI-8226 leukemia, in the experiment on NCI-H23 lung, in the experiment on SK-MEL-5 melanoma and with SF-539 CNS was greater than 100 µM in each case.

On to `O=C1C(=C2C(=O)c3ccccc3[N+]2=O)N([O-])c2ccccc21`, for which the TGI amounted to 48.5 µM in the experiment on HL-60(TB) leukemia; 91.4 µM with ACHN renal; 57.7 µM in the experiment on RPMI-8226 leukemia; 77.7 µM with NCI-H23 lung; 32.5 µM in the experiment with SK-MEL-5 melanoma; 47.7 µM with SF-539 CNS.
